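All cell lines were grown in 96-well plates and treated with compound for 48 hours. GI50: concentration for 50% inhibition of growth.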 The source made the active and inactive calls. Rule as the data show it: active = GI50 up to about 1.1 µM and inactive = higher.
Tests used:
Experiment in all cases: NCI-60 cell line screen, 48 h
[1] = system: 786-0
[2] = system: ACHN
[3] = system: CAKI-1
[4] = system: CCRF-CEM
[5] = system: EKVX
[6] = system: Hs-578T
[7] = system: K562
[8] = system: LOX IMVI
[9] = system: M14
[10] = system: MDA-MB-435
[11] = system: RPMI-8226
[12] = system: SF-268
[13] = system: SF-295
[14] = system: SK-MEL-28
[15] = system: SK-MEL-2
[16] = system: SK-OV-3
[17] = system: SR
[18] = system: NCI-H522
[19] = system: SK-MEL-5

Measured: GI50

N=C(N)SCc1ccc2c(c1)S(=O)(=O)c1ccccc1O2
inactive: [1] 33.6 µM | [2] 15.8 µM | [3] 21.3 µM | [4] 10.5 µM | [5] 17 µM | [6] 22.9 µM | [7] 26.7 µM | [8] 19.4 µM | [9] 20.5 µM | [10] 15.5 µM | [11] 37.7 µM | [12] 33.7 µM | [13] 21.2 µM | [14] 16.4 µM | [15] 16.4 µM | [16] 20.8 µM | [17] 23 µM

Cc1cc(N(CCC#N)CCC#N)ccc1C(/N=N/c1ccccc1)=N\NC(=O)c1cc(Cl)ccc1O
inactive: [1] 23.9 µM | [2] 15.8 µM | [3] 46.8 µM | [4] 16.6 µM | [5] 30.5 µM | [6] 23.8 µM | [7] 22.4 µM | [9] 26.4 µM | [10] 36.4 µM | [18] 13.6 µM | [11] 64.7 µM | [12] 30.1 µM | [13] 18.5 µM | [15] 32.4 µM | [19] 21.5 µM | [16] 71.4 µM | [17] 13.5 µM

CCCCCCCCCC1(N=[N+]=[N-])C(=O)c2ccccc2N(C)C1=O (centres undefined)
inactive: [1] 38.5 µM | [2] 32.3 µM | [3] 34.4 µM | [4] 16.8 µM | [6] 24.3 µM | [7] 19.8 µM | [8] 15.3 µM | [9] 27 µM | [10] 2.58 µM | [11] 39.9 µM | [12] 40 µM | [13] 42.2 µM | [14] 28.8 µM | [15] 25.4 µM | [19] 13 µM | [16] 25.1 µM | [17] 35.4 µM

COC(=O)c1c(O)ccc2c1c1c(n2Cc2ccccc2)C(=O)c2ccccc2C1
inactive: [1] 39.2 µM | [3] 36.5 µM | [4] 21.1 µM | [6] 86.5 µM | [7] 2.84 µM | [8] 26.2 µM | [9] 52.4 µM | [10] 33 µM | [11] 12.4 µM | [12] 39 µM | [13] 27.1 µM | [14] 44.6 µM | [15] 43.6 µM | [19] 50 µM | [16] 31.9 µM | [17] 7.48 µM

Cc1cc2nnn(C3CCCCO3)c2cc1C (centres undefined)
inactive: [1] > 100 µM | [2] > 100 µM | [3] > 100 µM | [4] > 100 µM | [5] > 100 µM | [6] > 100 µM | [7] > 100 µM | [9] > 100 µM | [10] > 100 µM | [18] > 100 µM | [13] > 100 µM | [15] > 100 µM | [19] > 100 µM | [16] > 100 µM | [17] > 100 µM

N#Cc1c(N)nc2c(c1-c1ccc(Br)cc1)CSc1ccccc1-2
inactive: [1] 27.1 µM | [3] 14.9 µM | [4] 22.4 µM | [6] 22.8 µM | [7] 32.1 µM | [8] 28.6 µM | [9] 41.7 µM | [10] 19.5 µM | [11] 18.2 µM | [12] 33.1 µM | [14] 68.7 µM | [15] 27.2 µM | [19] 58.7 µM | [16] 29.6 µM | [17] 68.4 µM

CCOC(=O)NC(=S)NC(C)c1ccccc1 (centres undefined)
inactive: [1] > 100 µM | [2] > 100 µM | [3] > 100 µM | [4] > 100 µM | [5] > 100 µM | [6] > 100 µM | [7] > 100 µM | [9] > 100 µM | [10] > 100 µM | [18] > 100 µM | [11] 27.2 µM | [12] > 100 µM | [13] > 100 µM | [14] > 100 µM | [15] > 100 µM | [19] > 100 µM | [16] > 100 µM | [17] 56.6 µM

O=C1Nc2c(Cl)cc(Cl)cc2C1=O
inactive: [1] 17.3 µM | [2] 34.2 µM | [3] 17.9 µM | [4] 21.3 µM | [5] 14.6 µM | [6] 16.4 µM | [7] 29.2 µM | [8] 14.4 µM | [9] 19.6 µM | [10] 4.27 µM | [13] 17.1 µM | [14] 17.7 µM | [15] 13.9 µM | [19] 15.3 µM | [16] 77.4 µM | [17] 12.2 µM

COC(=O)c1cc(OC)c(OC)c(OC)c1-c1cc2c(cc1C=O)OCO2
inactive: [1] > 10 µM | [2] > 10 µM | [3] > 10 µM | [4] > 10 µM | [5] > 10 µM | [6] > 10 µM | [7] > 10 µM | [8] > 10 µM | [9] > 10 µM | [10] > 10 µM | [18] > 10 µM | [11] > 10 µM | [12] > 10 µM | [13] > 10 µM | [14] > 10 µM | [15] > 10 µM | [19] > 10 µM | [16] > 10 µM

— ChEMBL document CHEMBL1201862, “PubChem BioAssay data set” (2004)
